Measurements published in PubChem BioAssay AID248 (DTP/NCI, 2004).
Values joined by “and” are separate entries in the source; they are usually repeats but may differ in a detail not shown here. Identical values can stand only once. Toxic doses and inconclusive results are not listed. Cut-off read from the data, not from the text of the source: active = T/C of 150% or more; inactive = T/C below 125%.

System: L1210 leukemia ip in BDF1 mice, survival T/C
Assay: NCI In Vivo Anticancer Drug Screen. Data for tumor model L1210 Leukemia (intraperitoneal) in B6D2F1 (BDF1) mice
Conditions: endpoint: mean survival time, higher = longer survival
In short: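 Read-out is survival time, reported as the treated-group measurement over the vehicle-control measurement.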

[1] = dose: 100.0 mg/kg/injection, schedule: Q04DX003 (ip), vehicle: Klucel (hydroxypropylcellulose) (HPC)
[2] = dose: 12.5 mg/kg/injection, schedule: Q04DX003 (ip), vehicle: Klucel (hydroxypropylcellulose) (HPC)
[3] = dose: 25.0 mg/kg/injection, schedule: Q04DX003 (ip), vehicle: Klucel (hydroxypropylcellulose) (HPC)
[4] = dose: 100.0 mg/kg/injection, schedule: Q04DX003 (ip), vehicle: saline with Tween-80
[5] = dose: 200.0 mg/kg/injection, schedule: Q04DX003 (ip), vehicle: saline with Tween-80
[6] = dose: 400.0 mg/kg/injection, schedule: Q04DX003 (ip), vehicle: saline with Tween-80
[7] = dose: 100.0 mg/kg/injection, schedule: Q01DX001 (ip), vehicle: carboxymethylcellulose (CMC)
[8] = dose: 200.0 mg/kg/injection, schedule: Q01DX001 (ip), vehicle: carboxymethylcellulose (CMC)
[9] = dose: 400.0 mg/kg/injection, schedule: Q01DX001 (ip), vehicle: carboxymethylcellulose (CMC)
[10] = dose: 100.0 mg/kg/injection, schedule: Q01DX001 (ip), vehicle: saline
[11] = dose: 200.0 mg/kg/injection, schedule: Q01DX001 (ip), vehicle: saline
[12] = dose: 400.0 mg/kg/injection, schedule: Q01DX001 (ip), vehicle: saline
[13] = dose: 100.0 mg/kg/injection, schedule: Q01DX001 (ip), vehicle: saline with Tween-80
[14] = dose: 200.0 mg/kg/injection, schedule: Q01DX001 (ip), vehicle: saline with Tween-80
[15] = dose: 400.0 mg/kg/injection, schedule: Q01DX001 (ip), vehicle: saline with Tween-80

Measured: T/C

COC(=O)C(CCl)NC(=O)NCCCl (stereo not given)
inactive: dose: 100.0 mg/kg/injection, schedule: Q01DX001 (ip), vehicle: Klucel (hydroxypropylcellulose) (HPC) 96 % of control | dose: 200.0 mg/kg/injection, schedule: Q01DX001 (ip), vehicle: Klucel (hydroxypropylcellulose) (HPC) 96 % of control | dose: 400.0 mg/kg/injection, schedule: Q01DX001 (ip), vehicle: Klucel (hydroxypropylcellulose) (HPC) 96 % of control

O=C(COc1ccc(Cl)cc1C(=O)O)NCc1cccc2ccccc12
inactive: [1] 97 % of control | dose: 200.0 mg/kg/injection, schedule: Q04DX003 (ip), vehicle: Klucel (hydroxypropylcellulose) (HPC) 98 % of control | dose: 400.0 mg/kg/injection, schedule: Q04DX003 (ip), vehicle: Klucel (hydroxypropylcellulose) (HPC) 100 % of control

N#CC1(C#N)CC=CCC1(C#N)C#N
inactive: dose: 12.5 mg/kg/injection, schedule: Q01DX009 (ip), vehicle: other 92 % of control | dose: 25.0 mg/kg/injection, schedule: Q01DX009 (ip), vehicle: other 87 % of control

CCCCCCCCC(=O)N1CCOCC1
inactive: dose: 4.68 mg/kg/injection, schedule: Q01DX009 (ip), vehicle: saline 97 % of control | dose: 9.37 mg/kg/injection, schedule: Q01DX009 (ip), vehicle: saline 97 % of control | [2] 99 % of control | dose: 18.75 mg/kg/injection, schedule: Q01DX009 (ip), vehicle: saline 97 % of control | dose: 25.0 mg/kg/injection, schedule: Q01DX009 (ip), vehicle: Klucel (hydroxypropylcellulose) (HPC) 104 % of control | [3] 103 % of control and 104 % of control | dose: 37.5 mg/kg/injection, schedule: Q01DX009 (ip), vehicle: saline 95 % of control | dose: 50.0 mg/kg/injection, schedule: Q01DX009 (ip), vehicle: Klucel (hydroxypropylcellulose) (HPC) 96 % of control | dose: 50.0 mg/kg/injection, schedule: Q04DX003 (ip), vehicle: Klucel (hydroxypropylcellulose) (HPC) 101 % of control | [1] 92 % of control

Cc1cc(C)c(CC(C)(CO)CO)c(C)c1CC(C)(CO)CO
inactive: dose: 100.0 mg/kg/injection, schedule: Q01DX009 (ip), vehicle: Klucel (hydroxypropylcellulose) (HPC) 107 % of control | dose: 200.0 mg/kg/injection, schedule: Q01DX009 (ip), vehicle: Klucel (hydroxypropylcellulose) (HPC) 98 % of control | dose: 400.0 mg/kg/injection, schedule: Q01DX009 (ip), vehicle: Klucel (hydroxypropylcellulose) (HPC) 96 % of control

O=C(O)c1nccc2ccccc12
inactive: dose: 100.0 mg/kg/injection, schedule: Q04DX003 (ip), vehicle: saline 96 % of control | dose: 200.0 mg/kg/injection, schedule: Q04DX003 (ip), vehicle: saline 112 % of control | dose: 400.0 mg/kg/injection, schedule: Q04DX003 (ip), vehicle: saline 90 % of control

CC(=O)/C=C/C1C(C)=CCCC1(C)C (stereo not given)
inactive: [4] 97 % of control | [5] 92 % of control | [6] 100 % of control

C[C@]12CCC(=O)C=C1CC[C@@H]1[C@@H]2[C@@H](O)C[C@@]2(C)[C@H]1CC[C@]2(C)O
inactive: dose: 50.0 mg/kg/injection, schedule: Q01DX009 (ip), vehicle: saline 91 % of control | dose: 100.0 mg/kg/injection, schedule: Q01DX009 (ip), vehicle: saline 97 % of control | dose: 200.0 mg/kg/injection, schedule: Q01DX009 (ip), vehicle: saline 102 % of control

CCCCn1c(N)n[nH]c1=S
inactive: [4] 100 % of control | [5] 90 % of control | [6] 94 % of control

O=C1c2ccccc2-c2cccc([N+](=O)[O-])c21
inactive: [7] 97 % of control | [8] 92 % of control | [9] 97 % of control

CCCCC(=O)N/N=C/c1ccccc1OCC
inactive: [10] 102 % of control | [11] 107 % of control | [12] 93 % of control

Clc1ccc(C2=Nc3c(Cl)ncnc3SC2)cc1
inactive: [13] 106 % of control | dose: 100.0 mg/kg/injection, schedule: Q01DX009 (ip), vehicle: saline with Tween-80 94 % of control | [14] 101 % of control | dose: 200.0 mg/kg/injection, schedule: Q01DX009 (ip), vehicle: saline with Tween-80 99 % of control | [15] 98 % of control | dose: 400.0 mg/kg/injection, schedule: Q01DX009 (ip), vehicle: saline with Tween-80 94 % of control

O=C1OC(=O)C2(Br)C3C=CC(C3)C12Br (stereo not given)
inactive: [4] 98 % of control | [5] 96 % of control | [6] 91 % of control

O=C(CCCCCCCCC(=O)NCC1(c2ccccc2)CCNCC1)NCC1(c2ccccc2)CCNCC1
inactive: dose: 1.25 mg/kg/injection, schedule: Q01DX Z (ip), vehicle: saline 89 % of control | dose: 2.5 mg/kg/injection, schedule: Q01DX Z (ip), vehicle: saline 88 % of control | dose: 10.0 mg/kg/injection, schedule: Q01DX Z (ip), vehicle: saline 97 % of control and 88 % of control | dose: 30.0 mg/kg/injection, schedule: Q01DX Z (ip), vehicle: saline 87 % of control

CCC(CO)ON=C(C)C (stereo not given)
inactive: [10] 104 % of control | [11] 104 % of control | [12] 102 % of control

NC(=O)c1ccccc1N=NN(CCF)CCF
inactive: dose: 6.25 mg/kg/injection, schedule: Q01DX009 (ip), vehicle: Klucel (hydroxypropylcellulose) (HPC) 120 % of control | dose: 6.25 mg/kg/injection, schedule: Q04DX003 (ip), vehicle: Klucel (hydroxypropylcellulose) (HPC) 112 % of control | dose: 12.5 mg/kg/injection, schedule: Q01DX001 (ip), vehicle: Klucel (hydroxypropylcellulose) (HPC) 106 % of control | dose: 25.0 mg/kg/injection, schedule: Q01DX001 (ip), vehicle: Klucel (hydroxypropylcellulose) (HPC) 113 % of control | [3] 104 % of control
active: dose: 12.0 mg/kg/injection, schedule: Q04DX003 (ip), vehicle: Klucel (hydroxypropylcellulose) (HPC) 153 % of control | [2] 156 % of control

CC(Cc1ccccc1)N(C)CC1C(=O)C2CCC1C2 (stereo not given)
inactive: dose: 75.0 mg/kg/injection, schedule: Q01DX001 (ip), vehicle: carboxymethylcellulose (CMC) 102 % of control | dose: 150.0 mg/kg/injection, schedule: Q01DX001 (ip), vehicle: carboxymethylcellulose (CMC) 96 % of control | dose: 300.0 mg/kg/injection, schedule: Q01DX001 (ip), vehicle: carboxymethylcellulose (CMC) 96 % of control

CNc1nc(SCc2ccc(F)cc2)ncc1C
inactive: dose: 25.0 mg/kg/injection, schedule: Q01DX Z (ip), vehicle: methylcellulose (MC) 96 % of control | dose: 50.0 mg/kg/injection, schedule: Q01DX Z (ip), vehicle: methylcellulose (MC) 103 % of control

CC(=O)NC1C(OCc2ccccc2)OC(COC(c2ccccc2)(c2ccccc2)c2ccccc2)C(OS(=O)(=O)c2ccc(C)cc2)C1OCc1ccccc1 (stereo not given)
inactive: [13] 100 % of control | [14] 86 % of control | [15] 100 % of control

O=C(Nc1ccc2oc(=O)c3ccccc3c2c1)C(Cl)Cl
inactive: dose: 15.0 mg/kg/injection, schedule: Q01DX015 (ip), vehicle: carboxymethylcellulose (CMC) 88 % of control | dose: 30.0 mg/kg/injection, schedule: Q01DX015 (ip), vehicle: carboxymethylcellulose (CMC) 88 % of control | dose: 60.0 mg/kg/injection, schedule: Q01DX015 (ip), vehicle: carboxymethylcellulose (CMC) 94 % of control | [7] 97 % of control | dose: 120.0 mg/kg/injection, schedule: Q01DX015 (ip), vehicle: carboxymethylcellulose (CMC) 93 % of control and 96 % of control | [8] 109 % of control | dose: 240.0 mg/kg/injection, schedule: Q01DX015 (ip), vehicle: carboxymethylcellulose (CMC) 98 % of control | [9] 103 % of control | dose: 480.0 mg/kg/injection, schedule: Q01DX015 (ip), vehicle: carboxymethylcellulose (CMC) 98 % of control

COC(=O)C(OC)(OC)C(OC)OC
inactive: [10] 97 % of control | [11] 103 % of control | [12] 106 % of control

Cc1nc(N)[nH]c(=O)c1CCCN=Cc1ccc([N+](=O)[O-])cc1
inactive: dose: 18.75 mg/kg/injection, schedule: Q01DX001 (ip), vehicle: Klucel (hydroxypropylcellulose) (HPC) 95 % of control | dose: 37.5 mg/kg/injection, schedule: Q01DX001 (ip), vehicle: Klucel (hydroxypropylcellulose) (HPC) 101 % of control | dose: 75.0 mg/kg/injection, schedule: Q01DX001 (ip), vehicle: Klucel (hydroxypropylcellulose) (HPC) 101 % of control
